Data published in US20260008818A1, “CYCLIC PEPTIDE OR SALT THEREOF, AND USES THEREOF” (FUJIFILM Corporation, priority 2023, published 2026).
Bridge positions count the residues as written; N and C are the ends. Ends that are not written are not given here. COCH2 = acetyl group that carries the bridge

Tested on: Recombinant Human FGFR1 alpha (IIIc) Fc Chimera Protein
Experiment: Binding affinity of enzymatically synthesized cyclic peptide to FGFR by ELISA
Conditions: luminescence signal at reaction concentration 10 nmol/L, SEQ ID NO: 39 standardized to 1, enzyme synthesis product
Method: The binding affinity of the cyclic peptide to FGFR was evaluated using an ELISA method.
The binding affinity of the enzymatically synthesized cyclic peptide to FGFR was measured by evaluating the amount of the cyclic peptide bound to FGFR by ELISA.
First, 5 ng of Recombinant Human FGFR1 alpha (IIIc) Fc Chimera Protein CF (R&D systems, 658-FR-050) was immobilized in each well of a 96-well plate, and blocked with Pierce Protein-Free (PBS) Blocking Buffer (Thermo, 37572), and a cyclic peptide diluted with Can Get Signal Immunoreaction Enhancer Solution I (TOYOBO, NKB-101) was then added and reacted at room temperature for 3 hours. After washing with 0.05% Tween 20-containing phosphate buffered saline (PBS), an anti-Myc antibody (Cell Signaling, 14038S) diluted with Can Get Signal Immunoreaction Enhancer Solution II (TOYOBO, NKB-101) was added and reacted at room temperature for 2 hours. After washing with 0.05% Tween 20-containing PBS, SuperSignal ELISA Femto Substrate (Thermo, 37075) was added, and the luminescence amount was measured. The dose-response relationship was calculated from using the difference between the luminescence amount in the well in which FGFR was immobilized and the luminescence amount in the well in which FGFR was not immobilized, and the concentration of the cyclic peptide at the time of reaction, and the binding affinity to FGFR was evaluated according to the following evaluation criteria. The evaluation result preferably satisfies the evaluation criteria A, B, or C.
In a case where a value of a luminescence signal emitted by the cyclic peptide set forth in SEQ ID NO: 39 at a reaction concentration of 10 nmol/L is standardized to 1, evaluation criteria of the luminescence signal value emitted by the cyclic peptide at a reaction concentration of 10 nmol/L is as follows. • A: 0.7 or more • B: 0.5 or more and less than 0.7 • C: 0.1 or more and less than 0.5 • D: less than 0.1.

## 46 (ACWVQYLWHGHAAPFLIK(COCH2)S; thioether 2-18 (inferred)) [compound 46]
  Evaluation result of binding affinity to FGFR: C (0.1 or more and less than 0.5)

## 59 (HCSYEALQFHGHEAPFRVK(COCH2)V; thioether 2-19 (inferred)) [compound 59]
  Evaluation result of binding affinity to FGFR: C (0.1 or more and less than 0.5)

## 370 (CYERLIFHGHEAPFWVK(COCH2)V; thioether 1-17) [compound 370]
  Evaluation result of binding affinity to FGFR: A (0.7 or more)

## 72 (FCSYERLQFHGHEAPFRVK(COCH2)V; thioether 2-19 (inferred)) [compound 72]
  Evaluation result of binding affinity to FGFR: A (0.7 or more)

## 290 (HCSYERLQFHGHKAPFRVK(COCH2)V; thioether 2-19 (inferred)) [compound 290]
  Evaluation result of binding affinity to FGFR: B (0.5 or more and less than 0.7)

## 246 (PCTYRQVVVHGWYAPFISK(COCH2)V; thioether 2-19 (inferred)) [compound 246]
  Evaluation result of binding affinity to FGFR: C (0.1 or more and less than 0.5)

## 284 (HCKYERLQFHGHEAPFRVK(COCH2)V; thioether 2-19 (inferred)) [compound 284]
  Evaluation result of binding affinity to FGFR: A (0.7 or more)

## 68 (PCSYERLQFHGHEAPFRVK(COCH2)V; thioether 2-19 (inferred)) [compound 68]
  Evaluation result of binding affinity to FGFR: A (0.7 or more)

## 243 (LCRYVKLRVGLHIAPFLIK(COCH2)S; thioether 2-19 (inferred)) [compound 243]
  Evaluation result of binding affinity to FGFR: C (0.1 or more and less than 0.5)

## 237 (HK(COCH2)TWERLIFLGHLAPFWVCR; thioether 2-19 (inferred)) [compound 237]
  Evaluation result of binding affinity to FGFR: B (0.5 or more and less than 0.7)

## 176 (HCSYERLQFHGHGAPFRVK(COCH2)V; thioether 2-19 (inferred)) [compound 176]
  Evaluation result of binding affinity to FGFR: C (0.1 or more and less than 0.5)

## 258 (ECYHKLIFLGWEAPFWHK(COCH2)E; thioether 2-18 (inferred)) [compound 258]
  Evaluation result of binding affinity to FGFR: A (0.7 or more)

## 181 (HCSYERLQFHGHFAPFRVK(COCH2)V; thioether 2-19 via Ac) [compound 181]
  Evaluation result of binding affinity to FGFR: A (0.7 or more)

## 175 (HCSYERLQFRGHEAPFRVK(COCH2)V; thioether 2-19 (inferred)) [compound 175]
  Evaluation result of binding affinity to FGFR: A (0.7 or more)

## 227 (YK(COCH2)TWERLIFLGHIAPFWVCR; thioether 2-19 (inferred)) [compound 227]
  Evaluation result of binding affinity to FGFR: C (0.1 or more and less than 0.5)

## 263 (ICRLSWFGFKAPFWIVDSK(COCH2)Q; thioether 2-19 (inferred)) [compound 263]
  Evaluation result of binding affinity to FGFR: B (0.5 or more and less than 0.7)

## 272 (WCHIAPFLYHDGIQWGHLK(COCH2)V; thioether 2-19 (inferred)) [compound 272]
  Evaluation result of binding affinity to FGFR: B (0.5 or more and less than 0.7)

## 143 (HCSYERYQFHGHEAPFRVK(COCH2)V; thioether 2-19 (inferred)) [compound 143]
  Evaluation result of binding affinity to FGFR: B (0.5 or more and less than 0.7)

## 140 (HCSYETLQFHGHEAPFRVK(COCH2)V; thioether 2-19 (inferred)) [compound 140]
  Evaluation result of binding affinity to FGFR: C (0.1 or more and less than 0.5)

## 313 (HCQWERLIFLGHIAPFWVK(COCH2)R; thioether 2-19 (inferred)) [compound 313]
  Evaluation result of binding affinity to FGFR: C (0.1 or more and less than 0.5)

## 156 (HCSYERLRFHGHEAPFRVK(COCH2)V; thioether 2-19 (inferred)) [compound 156]
  Evaluation result of binding affinity to FGFR: A (0.7 or more)

## 342 (NCIPFWWQQHWWQYPVRVVK(COCH2)T; thioether 2-20) [compound 342]
  Evaluation result of binding affinity to FGFR: C (0.1 or more and less than 0.5)

## 365 (NCWGYTYIIPFNYISK(COCH2)T; thioether 2-16) [compound 365]
  Evaluation result of binding affinity to FGFR: B (0.5 or more and less than 0.7)

## 41 (TCFVQLWFVDKPAPFLVK(COCH2)T; thioether 2-18 (inferred)) [compound 41]
  Evaluation result of binding affinity to FGFR: B (0.5 or more and less than 0.7)

## 159 (HCSYERLQIHGHEAPFRVK(COCH2)V; thioether 2-19 (inferred)) [compound 159]
  Evaluation result of binding affinity to FGFR: C (0.1 or more and less than 0.5)

## 345 (QCYLPFWFYQKARLLFHYIK(COCH2)S; thioether 2-20) [compound 345]
  Evaluation result of binding affinity to FGFR: C (0.1 or more and less than 0.5)

## 202 (HCSYERLQFHGHEAPFRLK(COCH2)V; thioether 2-19 via Ac; not fully specified) [compound 202]
  Evaluation result of binding affinity to FGFR: C (0.1 or more and less than 0.5)

## 120 (HCSYGRLQFHGHEAPFRVK(COCH2)V; thioether 2-19 (inferred)) [compound 120]
  Evaluation result of binding affinity to FGFR: B (0.5 or more and less than 0.7)

## 61 (HCSYERLQFAGHEAPFRVK(COCH2)V; thioether 2-19 (inferred)) [compound 61]
  Evaluation result of binding affinity to FGFR: A (0.7 or more)

## 88 (HCYYERLQFHGHEAPFRVKV; not fully specified; Description of Artificial Sequence: Cyclic peptide) [compound 88]
  Evaluation result of binding affinity to FGFR: A (0.7 or more)

## 339 (YCITQHPWAPFWVVNPWDNK(COCH2)L; thioether 2-20 (inferred)) [compound 339]
  Evaluation result of binding affinity to FGFR: C (0.1 or more and less than 0.5)

## 105 (HCSYERLQFHFHEAPFRVK(COCH2)V; thioether 2-19 (inferred)) [compound 105]
  Evaluation result of binding affinity to FGFR: C (0.1 or more and less than 0.5)

## 280 (PCWTRVVLLHHYAPFWAK(COCH2)I; thioether 2-18 (inferred)) [compound 280]
  Evaluation result of binding affinity to FGFR: C (0.1 or more and less than 0.5)

## 183 (HCSYERLQFHGHWAPFRVK(COCH2)V; thioether 2-19 via Ac) [compound 183]
  Evaluation result of binding affinity to FGFR: A (0.7 or more)

## 189 (HCSYERLQFHGHRAPFRVK(COCH2)V; thioether 2-19 via Ac) [compound 189]
  Evaluation result of binding affinity to FGFR: A (0.7 or more)

## 230 (HK(COCH2)QWERLIFLGHIAPFWVCR; thioether 2-19 (inferred)) [compound 230]
  Evaluation result of binding affinity to FGFR: B (0.5 or more and less than 0.7)

## 324 (HCTWERLIFLGHIAPFWVK(COCH2)V; thioether 2-19 (inferred)) [compound 324]
  Evaluation result of binding affinity to FGFR: B (0.5 or more and less than 0.7)

## 64 (HCSYERLQFHGHEAPFAVK(COCH2)V; thioether 2-19 (inferred)) [compound 64]
  Evaluation result of binding affinity to FGFR: B (0.5 or more and less than 0.7)

## 63 (HCSYERLQFHGHEAAFRVK(COCH2)V; thioether 2-19 (inferred)) [compound 63]
  Evaluation result of binding affinity to FGFR: C (0.1 or more and less than 0.5)

## 215 (HCSYERLQFHGHEAPFRVK(COCH2)W; thioether 2-19 via Ac; not fully specified) [compound 215]
  Evaluation result of binding affinity to FGFR: B (0.5 or more and less than 0.7)

## 337 (ACLPFLRIIIAGHWAPFLAK(COCH2)Q; thioether 2-20 (inferred)) [compound 337]
  Evaluation result of binding affinity to FGFR: C (0.1 or more and less than 0.5)

## 373 (CERLIFHGHEAPFWVK(COCH2); thioether 1-16) [compound 373]
  Evaluation result of binding affinity to FGFR: A (0.7 or more)

## 102 (HCSSERLQFHGHEAPFRVK(COCH2)V; thioether 2-19 (inferred)) [compound 102]
  Evaluation result of binding affinity to FGFR: C (0.1 or more and less than 0.5)

## 314 (HCTFERLIFLGHIAPFWVK(COCH2)R; thioether 2-19 (inferred)) [compound 314]
  Evaluation result of binding affinity to FGFR: C (0.1 or more and less than 0.5)

## 47 (SCWTQLQWQAHLAPFWTK(COCH2)V; thioether 2-18 (inferred)) [compound 47]
  Evaluation result of binding affinity to FGFR: C (0.1 or more and less than 0.5)

## 127 (HCSYWRLQFHGHEAPFRVK(COCH2)V; thioether 2-19 (inferred)) [compound 127]
  Evaluation result of binding affinity to FGFR: A (0.7 or more)

## 268 (VCRLSFWGHAAPFLSVK(COCH2)T; thioether 2-17 (inferred)) [compound 268]
  Evaluation result of binding affinity to FGFR: C (0.1 or more and less than 0.5)
